# Measurements reported in PMC9054212, “Discovery of 4-(2-(dimethylamino)ethoxy)benzohydrazide derivatives as prospective microtubule affinity regulating kinase 4 inhibitors” (RSC Advances, 2020).
# Where two headings read alike, the source gives them in different places.
# What was measured:
# [1] = system: A549 cells; assay: Colony formation assay, A549; type: cell-based, human; conditions: IC50 concentration, 10–12 days, vs control
# Experimental: (§1) The colony-forming assay was performed to evaluate the effect of selected compounds on cell colonization potential of cancer cells. Briefly, cells were plated at a density of 1000–2000 (A549/MCf-7) cells per well in a six-well cell culture plate. Cells were grown for at least 24 h in cell growth medium and then incubated with IC50 concentration of selected compounds for 10–12 days at 37 °C (in a humidified 5% CO2 incubator). Control cells were treated with an equal percentage of DMSO. After 10–12 days, the cell colonies were fixed with 100% methanol and staining was performed using 0.4% crystal violet in 25% methanol. The colonies obtained was counted, plotted and compared with the controls.
# [2] = system: MCF-7 cells; assay: Annexin-V/PI apoptosis assay by flow cytometry, MCF-7; type: cell-based, human; conditions: IC50 concentration, 48 h
# Experimental: (§2) Annexin-V staining was used to assess the apoptotic potential of the selected hydrazones as described.[22,41] Briefly, cells were treated with IC50 concentration of selected hydrazones for 24 h and control cells were treated with DMSO/culture medium only. After 24 h incubation, approximately 2.0–2.5 × 10^6 cells were collected by trypsinization and washed twice with PBS (5–10 mL). Finally, FITC labelled Annexin-V and PE labelled PI was used for staining the cells using the FITC-Annexin-V kit by following manufacture instructions (BD-Biosciences, USA). Nearly, 10 000 events were recorded using BD LSR II Flow Cytometry Analyzer and analyzed by FlowJo software.
# (§3) Cancer cells support their growth and maintenance by evading the apoptotic pathways.[48] MARK4 regulates the cancer cell growth and proliferation via modulating the apoptotic pathways.[12,15,46] The treatment of MCF-7 and A549 cells with H4 and H19 inhibit the activity of MARK4, decreases cell proliferation and migration raises the evaluation of these MARK4 inhibitors for the apoptosis induction. Thus, to investigate whether the selected inhibitor induces cell death via apoptosis or not, we have performed Annexin-V/PI staining using flow cytometry. Cells were treated with IC50 concentration of each molecule for 48 h and processed for apoptosis analysis. […]
# [3] = biological target: human serum albumin (HSA) (Homo sapiens, UniProt P02768); assay: Fluorescence quenching binding study with HSA; conditions: Stern–Volmer plot, ligand 0–20 μM, HSA 5–10 μM
# Experimental: (§4) The binding affinity of selected hydrazone derivatives with human serum albumin (HSA) and MARK4 was carried out using fluorescence binding studies as described.[39] The values of binding constant (Ka) and a number of binding sites present in protein (n) were obtained by using the modified Stern–Volmer equation from the intercept and slope, respectively.
# (§5) To measure the actual binding affinity of selected ligands with MARK4 and HSA, fluorescence quenching studies were performed.[43,44] Both MARK4 and HSA contain tryptophan residues, therefore it has been used as an intrinsic fluorophore to estimate the interaction of ligand. Protein was excited at 280 nm and the emission spectrum was recorded in 300–400 nm range. With increasing ligand concentrations (0–20 μM), the fluorescence intensity of MARK4 and HSA was decreases in a concentration-dependent manner (Fig. 3 and 4), indicating a considerable binding. Values of Ka and n were calculated from fluorescence emission spectra using the Stern–Volmer plot. […]
# (§6) Fig. 4 Binding of compound H4 and H19 with HSA. (A) Fluorescence emission spectra of HSA (5–10 μM) with increasing concentrations of compound H4 and H19. (B) Stern–Volmer plot obtained from the fluorescence quenching data of HSA by compound H4 and H19, respectively. Protein sample was excited at 280 nm and emission for each titration was recorded in the range of 300–400 nm. […]
# [4] = biological target: T1, MARK4 (Homo sapiens, UniProt Q96L34); assay: Fluorescence quenching binding study with MARK4; conditions: Stern–Volmer plot, ligand 0–20 μM, MARK4 5 μM
# T1 construct: MARK4 protein was expressed and purified by following previous protocols; made in house
# T1 sequence (Q96L34 1-752): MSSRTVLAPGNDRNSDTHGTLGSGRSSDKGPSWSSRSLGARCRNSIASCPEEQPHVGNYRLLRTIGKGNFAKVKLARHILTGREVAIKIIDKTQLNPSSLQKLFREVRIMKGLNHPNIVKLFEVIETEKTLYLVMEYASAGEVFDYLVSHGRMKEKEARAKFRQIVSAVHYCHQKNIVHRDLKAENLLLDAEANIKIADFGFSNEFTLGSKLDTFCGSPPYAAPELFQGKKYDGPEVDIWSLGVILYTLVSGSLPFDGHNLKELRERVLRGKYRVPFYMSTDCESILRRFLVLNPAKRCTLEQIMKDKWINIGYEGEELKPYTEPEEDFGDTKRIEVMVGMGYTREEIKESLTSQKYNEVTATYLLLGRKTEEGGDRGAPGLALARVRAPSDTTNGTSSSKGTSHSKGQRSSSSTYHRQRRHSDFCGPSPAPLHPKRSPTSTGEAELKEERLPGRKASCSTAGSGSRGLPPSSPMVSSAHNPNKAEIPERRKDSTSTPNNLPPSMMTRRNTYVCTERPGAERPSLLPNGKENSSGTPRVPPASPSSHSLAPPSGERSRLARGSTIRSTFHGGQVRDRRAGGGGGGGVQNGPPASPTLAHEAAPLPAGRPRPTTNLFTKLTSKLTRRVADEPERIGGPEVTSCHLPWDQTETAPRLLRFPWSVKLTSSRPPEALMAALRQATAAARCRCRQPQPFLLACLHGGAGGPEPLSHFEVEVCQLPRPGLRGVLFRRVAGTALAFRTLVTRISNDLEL
# Experimental: as §4, §5
# as §6, with “Fig. 3” for “Fig. 4”, “with MARK4.” for “with HSA.”, “of MARK4 (5” for “of HSA (5–10”, “of MARK4” for “of HSA”
# [5] = system: A549 cells; assay: Annexin-V/PI apoptosis assay by flow cytometry, A549; type: cell-based, human; conditions: IC50 concentration, 48 h
# Experimental: as §2, §3
# [6] = system: MCF-7 cells; assay: Colony formation assay, MCF-7; type: cell-based, human; conditions: IC50 concentration, 10–12 days, vs control
# Experimental: as §1
# [7] = system: A549 cells; assay: MTT cell proliferation assay, A549; type: cell-based; conditions: Homo sapiens, read-out: IC50, cell proliferation, A549 cells
# Experimental: (§7) Human cell lines (HEK-293, A549 and MCF-7) were seeded and maintained in a medium supplemented with DMEM along with 10% heat-inactivated fetal bovine serum (Gibco) and 1% penicillin, streptomycin solution (Gibco), cultured in a 5% CO2 humidified incubator at 37 °C. Cell cultures were maintained and trypsinized regularly, not for more than 30 passages. MTT assay was carried out to see the effect of selected hydrazone compound treatment on the viability of non-cancerous (HEK-293) and cancerous cell lines (A549 and MCF-7) as per described method.[22,24] In brief, 6000–7000 cells per well were seeded in a 96-well plate and after 24 h growth, the cells were treated with increasing concentrations (0–200 μM) of each hydrazone (final volume of 200 μL) for 48 h at 37 °C in a humidified chamber. After 48 h, MTT was added (20 μL solution from 5 mg mL^−1 stock solution prepared in phosphate buffer saline, pH 7.4) to each well and plates were further incubated for 4–5 h at 37 °C in a CO2 incubator. The supernatant was aspirated and the formazan crystals were dissolved in 150 μL of DMSO. The absorbance (A) of final products was measured using multiplate ELISA reader (BioRad) at 570 nm. The percentage of cell viability was calculated and IC50 (50% inhibitory concentration) values of each hydrazone derivative were estimated (paclitaxel was taken as a positive control for cell proliferation studies).
# [8] = biological target: T1, MARK4; assay: MARK4 ATPase enzyme inhibition assay; type: biochemical
# Experimental: MARK4 protein was expressed and purified by following previous protocols.[27,37] The purity of the protein was further confirmed by a single band shown by SDS PAGE. ATPase assay was carried out to evaluate the enzyme activity of MARK4 in the presence of selected hydrazone derivatives. The activity of MARK4 was studied with the increasing concentration of each selected hydrazone derivative by following our published protocol.[24,38]
# To further evaluate the inhibitory potential of selected compounds with MARK4, enzyme inhibition assay was performed (at a single dose of 10 μM). […] Thus, these two compounds were further selected and evaluated with MARK4 in a concentration-dependent manner. […] The percent inhibition of ATPase activity was plotted as a function of ligand concentration and used to estimate IC50 (concentration of 50% inhibition, Fig. 1A).
# [9] = system: MARK4 and p-tau in MCF-7 cells; assay: Immunoblotting of MARK4 and p-tau in treated MCF-7 cells; type: cell-based, human; conditions: IC50 concentration, vs control
# Experimental: The compound treated cell line samples were lysed in RIPA cell lysis buffer (Thermo Fisher Scientific, USA) in an ice-cold condition using ultrasonication. Total protein was isolated and protein estimation was performed using Bicinchoninic Acid Assay (BCA-protein estimation kit). Nearly 30–40 μg of whole protein lysate was diluted with 6× Laemmli's buffer, boiled for 3–5 min and resolved using 10–12% SDS-polyacrylamide electrophoresis under reducing conditions. The resolved polypeptides were transferred to polyvinylidene fluoride (PVDF) membrane through blotting, peptide-specific primary antibodies were used for identification and horseradish peroxidase coupled conjugates were used for visualization using luminol as a chemiluminescent substrate.[40]
# Next, we tried to see the inhibition potential of these molecules at the cellular level. Cells were treated with IC50 concentration of each molecule and processed for the expression studied of MARK4 and p-tau (substrate of MARK4). […] Phosphorylation of tau correspondingly decreases in the treated cells as compared to control (Fig. 1B).
# [10] = system: MCF-7 cells; assay: MTT cell proliferation assay, MCF-7; type: cell-based; conditions: Homo sapiens, read-out: IC50, cell proliferation, MCF-7 cells
# Experimental: as §7
# [11] = system: MCF-7 cells; assay: Trans-well cell migration assay, MCF-7; type: cell-based, human; conditions: IC50 concentration, 24 h, Boyden chamber, vs control
# Experimental: (§8) Trans-well migration assay was performed using a modified Boyden chamber containing cell culture inserts (8 μm pore size, polyethylene terephthalate track-etched membrane, BD Falcon #353093). Briefly, cells were serum-starved for 3–4 h, trypsinized and suspended in a serum-free medium. In the upper chamber of cell culture insert, an equal number of cells with the IC50 dose of selected compounds or DMSO (control) were plated and in the lower chamber of well plate, 10% FBS-DMEM (for chemotaxis movement) was added. The cells were allowed to migrate for 24 h in a humidified 5% CO2 incubator at 37 °C and the migrated cells (that invaded through membrane pores) onto the lower side of Trans-well cell culture insert were fixed with methanol and staining was performed using 0.4% crystal violet in 25% methanol. The remaining cells present on the upper side of the chamber were wiped off with the help of cell scrapper/tissue wipes. Finally, the migrated cells present on the lower surface of the cell culture insert were imaged using a light microscope and counted in 3–5 random fields.
# [12] = system: HEK293 cells; assay: MTT cell viability assay, non-cancerous HEK293; type: cell-based, human; conditions: at the IC50 or active concentration, compared with cancerous cells
# Experimental: as §7
# [13] = system: A549 cells; assay: Trans-well cell migration assay, A549; type: cell-based, human; conditions: IC50 concentration, 24 h, Boyden chamber, vs control
# Experimental: as §8
# [14] = bound stated after screen at a single dose of 10 μM, read-out: IC50, MARK4 enzyme inhibition
# [15] = cell-free, concentration-dependent, read-out: IC50, inhibition of ATPase activity of MARK4
# human serum albumin (HSA), sequence (P02768 25-609): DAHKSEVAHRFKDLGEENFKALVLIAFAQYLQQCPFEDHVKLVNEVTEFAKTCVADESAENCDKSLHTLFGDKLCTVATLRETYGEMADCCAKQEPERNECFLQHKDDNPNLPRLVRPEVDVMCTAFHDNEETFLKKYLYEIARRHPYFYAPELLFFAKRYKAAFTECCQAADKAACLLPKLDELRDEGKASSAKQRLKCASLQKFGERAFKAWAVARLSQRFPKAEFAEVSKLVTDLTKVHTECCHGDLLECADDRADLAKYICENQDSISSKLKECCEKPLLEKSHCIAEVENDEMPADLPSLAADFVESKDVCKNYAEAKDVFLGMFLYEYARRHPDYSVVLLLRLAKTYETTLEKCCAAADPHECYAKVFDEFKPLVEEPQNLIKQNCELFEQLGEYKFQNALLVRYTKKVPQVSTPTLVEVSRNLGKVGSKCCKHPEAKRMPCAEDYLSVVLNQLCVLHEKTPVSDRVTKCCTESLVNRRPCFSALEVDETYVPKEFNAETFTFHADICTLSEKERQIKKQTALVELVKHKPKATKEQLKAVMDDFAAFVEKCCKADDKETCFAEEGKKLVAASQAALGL
Structure (SMILES),"number of colonies, A549 [1]","apoptosis induced, share of MCF-7 cells [2] [%]","apoptosis induced, share of A549 cells [5] [%]","number of colonies, MCF-7 [6]","IC50 [8, 14] [nM]","IC50 [8, 15] [nM]",protein level of MARK4 [9],protein level of p-tau [9],"cell migration, MCF-7 [11]",cytotoxicity to non-cancerous cells [12],"cell migration, A549 [13]",melting point [°C],further results
CN(C)CCOc1ccc(C(=O)NN=Cc2ccc(Cl)cc2)cc1 [H4],significantly decreased,30.29,28.5,significantly decreased,< 1000,149,decreases,decreases,lesser number of cells were migrated,less toxic,lesser number of cells were migrated,,"binding constant Ka for HSA [3]: 443000 M⁻¹; binding constant Ka for MARK4 [4]: 4.07e+09 M⁻¹; IC50 ([7]; A549, MTT, 48 h, 0–200 μM): 45.2 µM; IC50 ([10]; MCF7, MTT, 48 h, 0–200 μM): 27.4 µM"
Cc1cc(C)c(C=NNC(=O)c2ccc(OCCN(C)C)cc2)c(C)c1 [H19],significantly decreased,26.71,24.25,significantly decreased,< 1000,215,decreases,decreases,lesser number of cells were migrated,less toxic,lesser number of cells were migrated,,"Kd ([3]; read-out: binding constant Ka for HSA (converted)): 7.69 µM; Kd ([4]; read-out: binding constant Ka for MARK4 (converted)): 10.4 nM; IC50 ([7]; A549, 48 h): 61.5 µM; IC50 ([10]; MCF7, 48 h): 34.4 µM"
CN(C)CCOc1ccc(C(=O)NN=Cc2ccccc2O)cc1 [H7],,,,,,,,,,,,149 to 153,
CN(C)CCOc1ccc(C(=O)NN=Cc2ccc([N+](=O)[O-])cc2)cc1 [H6],,,,,,,,,,,,96 to 100,
CN(C)CCOc1ccc(C(=O)NN=Cc2ccc(O)cc2)cc1 [H8],,,,,,,,,,,,109 to 114,
CN(C)CCOc1ccc(C(=O)NN=Cc2cccc([N+](=O)[O-])c2)cc1 [H5],,,,,,,,,,,,125 to 130,
